Assay results as given in paper PMC10824152 (Journal of medicinal chemistry, 2023).

Assays:
rat nNOS = rat nNOS (Rattus norvegicus, UniProt P29476)
human nNOS = human nNOS (Homo sapiens, UniProt P29475); conditions: ratio of Ki values versus 17

| SMILES | Loss in potency as compared to 17, rat nNOS (rat nNOS) [fold] | Lower potency than 17, human nNOS (human nNOS) [fold] |
| --- | --- | --- |
| COc1cc(N)nc(CCc2cc(CCN(C)C)cc(F)c2F)c1.Cl.Cl [Compound 18, 6-(5-(2-(Dimethylamino)ethyl)-2,3-difluorophenethyl)-4-methoxypyridin-2-amine dihydrochloride] | 5 |  |
| Cc1cc(CCc2cc(CCN(C)C)cc(F)c2F)nc(N)n1.Cl.Cl [Compound 19, 4-(5-(2-(Dimethylamino)ethyl)-2,3-difluorophenethyl)-6-methylpyrimidin-2-amine dihydrochloride] | 438 |  |
| CN(C)CCc1cc(F)c(F)c(CCc2cc(C(F)F)cc(N)n2)c1.Cl.Cl [Compound 23, 4-(Difluoromethyl)-6-(5-(2-(dimethylamino)ethyl)-2,3-difluorophenethyl)pyridin-2-amine dihydrochloride] |  | 14 |
